EC50 and IC50 data for nine compounds are collected here from patent US10316017B2, “COT modulators and methods of use thereof” (Gilead Sciences, Inc., priority 2015, dated 2019).

Experiment [1] concerns TNFα production in LPS-stimulated human monocytes. Nature of the experiment: Cot Monocyte TNFα Cell Based Assay. The conditions noted are these: Homo sapiens, Monocyte, TNFα in LPS-stimulated human monocytes; read-out: EC50 TNF. The gist of the method:
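TNFα release quantified by two-antibody TR-FRET, normalised to unstimulated (0%) and LPS-stimulated (100%) wells. Cells got a 1 h compound exposure at 37° C in 0.5% DMSO before 4 h challenge with 50 pg/ml LPS, at 5,000 cells/well.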

Experiment [2] concerns the target T1, human Cot catalytic domain (30-397 amino acids) (Homo sapiens, UniProt P41279).
T1 construct: Purified recombinant human Cot catalytic domain (30-397 amino acids) was purchased from Cama Biosciences; purchased Cama Biosciences (so in the source)
Kind of experiment: High Throughput Cot Biochemical Assay (KinEASE TR-FRET). The conditions noted are these: Cot biochemical HTRF (KinEASE TR-FRET) assay; read-out: IC50 HTRF. The gist of the method: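 TR-FRET (KinEASE) read-out: Eu-labelled phospho-specific antibody binds XL665-tagged STK3 peptide (1 μM) phosphorylated by 5 nM human Cot kinase domain (residues 30-397). Reaction at 400 μM ATP, pH 7.0 MOPS buffer with 10 mM MgOAc, 1 mM DTT and 0.1% DMSO.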

T1 sequence (P41279 30-397): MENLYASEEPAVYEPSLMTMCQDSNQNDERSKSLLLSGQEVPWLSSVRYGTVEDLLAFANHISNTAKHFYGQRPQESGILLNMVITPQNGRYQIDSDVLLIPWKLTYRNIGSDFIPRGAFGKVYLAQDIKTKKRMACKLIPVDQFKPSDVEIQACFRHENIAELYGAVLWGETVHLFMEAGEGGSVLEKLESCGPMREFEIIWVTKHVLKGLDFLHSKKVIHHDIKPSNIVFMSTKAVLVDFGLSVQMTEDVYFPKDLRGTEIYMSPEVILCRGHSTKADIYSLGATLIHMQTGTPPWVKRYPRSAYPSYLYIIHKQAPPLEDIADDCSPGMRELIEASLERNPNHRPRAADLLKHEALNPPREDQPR

Consider `CN1CC(n2cc([C@@H](Nc3cc(Cl)c4ncc(C#N)c(Nc5ccc(F)c(Cl)c5)c4c3)c3ccccc3)nn2)CC(F)(F)C1` (stereo partly drawn) [Example 736, 8-chloro-4-((3-chloro-4-fluorophenyl)amino)-6-(((1S)-(1-(5,5-difluoro-1-methylpiperidin-3-yl)-1H-1,2,3-triazol-4-yl)(phenyl)methyl)amino) quinoline-3-carbonitrile], for which, in experiment [1], the EC50 came to 376 nM. Further, the IC50 in experiment [2] is 41 nM.

As for `N#Cc1cnc2c(Cl)cc(N[C@@H](c3ccccc3)c3cn(CCN4CCOCC4)nn3)cc2c1Nc1ccc(F)c(Cl)c1` [Example 737, (S)-8-chloro-4-((3-chloro-4-fluorophenyl)amino)-6-(((1-(2-morpholinoethyl)-1H-1,2,3-triazol-4-yl)(phenyl)methyl)amino)quinoline-3-carbonitrile], in experiment [1], the EC50 stood at 411 nM. For the same compound, the IC50 in experiment [2] was 21 nM.

As to `N#Cc1cnc2c(Cl)cc(N[C@@H](c3ccccc3)c3cn(CCO)nn3)cc2c1Nc1ccc(F)c(Cl)c1` [Example 738, (S)-8-chloro-4-((3-chloro-4-fluorophenyl)amino)-6-(((1-(2-hydroxyethyl)-1H-1,2,3-triazol-4-yl)(phenyl)methyl)amino)quinoline-3-carbonitrile], in experiment [1], the EC50 came out at 274 nM. Moreover, the IC50 in experiment [2] worked out at 7 nM.

Consider `CC(C)(C)N1CCC(n2cc([C@@H](Nc3cc(Cl)c4ncc(C#N)c(Nc5cccc(Cl)c5F)c4c3)c3ccc(Cl)cc3)nn2)CC1` [Example 739, (S)-6-(((1-(1-(tert-butyl)piperidin-4-yl)-1H-1,2,3-triazol-4-yl)(4-chlorophenyl)methyl)amino)-8-chloro-4-((3-chloro-2-fluorophenyl)amino)quinoline-3-carbonitrile], for which the EC50 in experiment [1] was found to be 1100 nM. In addition, the IC50 in experiment [2] was 22 nM.

As for `CC(C)(C)N1CCC(n2cc([C@@H](Nc3cc(Cl)c4ncc(C#N)c(Nc5ccc(Cl)cc5)c4c3)c3ccc(Cl)cc3)nn2)CC1` [Example 740, (S)-6-(((1-(1-(tert-butyl)piperidin-4-yl)-1H-1,2,3-triazol-4-yl)(4-chlorophenyl)methyl)amino)-8-chloro-4-((4-chlorophenyl)amino)quinoline-3-carbonitrile], the EC50 in experiment [1] worked out at 5550 nM. The IC50 in experiment [2] was determined as 244 nM.

On to `Cc1cccc(Nc2c(C#N)cnc3c(Cl)cc(N[C@@H](c4ccc(Cl)cc4)c4cn(C5CCN(C(C)(C)C)CC5)nn4)cc23)c1` [Example 741, (S)-6-(((1-(1-(tert-butyl)piperidin-4-yl)-1H-1,2,3-triazol-4-yl)(4-chlorophenyl)methyl)amino)-8-chloro-4-(m-tolylamino)quinoline-3-carbonitrile], for which the EC50 in experiment [1] came out at 1240 nM. Besides, the IC50 in experiment [2] amounted to 122 nM.

Turning to `Cc1ccc(Nc2c(C#N)cnc3c(Cl)cc(N[C@@H](c4ccc(Cl)cc4)c4cn(C5CCN(C(C)(C)C)CC5)nn4)cc23)cc1` [Example 742, (S)-6-(((1-(1-(tert-butyl)piperidin-4-yl)-1H-1,2,3-triazol-4-yl)(4-chlorophenyl)methyl)amino)-8-chloro-4-(p-tolylamino)quinoline-3-carbonitrile], in experiment [1], the EC50 is 1770 nM. In experiment [2], the IC50 amounted to 315 nM.

`CCN1CC[C@@H](n2cc([C@@H](Nc3cc(Cl)c4ncc(C#N)c(Nc5ccc(F)c(Cl)c5)c4c3)c3ccccc3)nn2)[C@H](F)C1` [Example 743, 8-chloro-4-((3-chloro-4-fluorophenyl)amino)-6-(((S)-(1-((3R,4R)-1-ethyl-3-fluoropiperidin-4-yl)-1H-1,2,3-triazol-4-yl)(phenyl)methyl)amino)quinoline-3-carbonitrile]: the EC50 in experiment [1] came to 575 nM. Also, the IC50 in experiment [2] stood at 29 nM.

On to `N#Cc1cnc2c(Cl)cc(N[C@@H](c3ccccc3)c3cn([C@@H]4CCNC[C@H]4F)nn3)cc2c1Nc1ccc(F)c(Cl)c1` [Example 744, 8-chloro-4-((3-chloro-4-fluorophenyl)amino)-6-(((S)-(1-((3R,4R)-3-fluoropiperidin-4-yl)-1H-1,2,3-triazol-4-yl)(phenyl)methyl)amino) quinoline-3-carbonitrile], for which the EC50 in experiment [1] was determined as 363 nM. The IC50 in experiment [2] worked out at 13 nM.

Usually EC50 stands for the concentration needed to bring the measured effect to its halfway point. One may read the IC50 as the concentration at which inhibition is half-maximal.
